Measurements taken from paper PMC5489165, “Identification of benzazole compounds that induce HIV-1 transcription” (PLoS ONE, 2017).
Where two headings read alike, the source gives them in different places.

Legend:
[1] = Microsome assay, mouse liver microsomes; format: in vitro ADME
Experimental: (§1) Human and mouse liver microsomes were obtained from XenoTech, LLC (Kansas City, KS). The reaction mixture was composed of liver microsomes (0.5 mg/mL), 20 mM Tris-HCl pH 7.4, 2.5 mM MgCl2, and an NADPH generating system (0.1 mM NADP, 1.2 mM glucose-6-phosphate and 0.3 units/ml glucose-6-phophate dehydrogenase). […] Test compounds were added to the microsome reaction and loss of parent molecule was monitored after 1 h by LC/MS/MS.

[2] = test system: Kaposi's sarcoma associated herpesvirus (KSHV) in BCP-1 cells; assay: KSHV activation assay in BCP-1 cells (ORF50 qRT-PCR); format: cell-based; details: 24 h, up to 100 μM
[3] = Pharmacokinetics in CD-1 mice; format: in vivo; details: mouse, 10 mg/kg, PO
Experimental: All animal studies were performed in compliance with IACUC approved protocols at AAALAC-certified animal facilities. Pharmacokinetics of test compounds were evaluated in CD-1 mice (Charles River Laboratories, Wilmington, MA). Compounds were formulated as a suspension in 0.5% hydroxypropylmethyl cellulose with 0.1% Tween 80 and administered by gavage at a dose of 10 mg/kg. […] Mice were anaesthetized with CO2 followed by terminal exsanguination as per the Guide for the Care and Use of Laboratory Animals. Blood was collected by terminal cardiac puncture at 1, 2, 4, 7, 16, and 24 h post-dose (3 mice per time point), and centrifuged to collect plasma. Brain tissue was collected at the time of blood collection and homogenized in water. The concentrations of test compound in plasma and brain tissue were quantified by liquid chromatography-tandem mass spectrometry (LC-MS/MS). Briefly, the plasma and tissue homogenate samples were treated with an acetonitrile-methanol mixture containing an internal standard that is a close structural analog of the test compounds. The treated plasma and brain homogenate samples were centrifuged and the supernatant was collected and analyzed using electro-spray LC-MS/MS.

IL-2 secretion by PBMCs = assay: IL-2 ELISA in PBMCs; format: cell-based, human; details: 24 h
Experimental: Cryopreserved PBMCs from a single donor were thawed in RPMI-1640 plus 10% FBS. PBMCs were plated at 5×10^4/well in 96-well plates and compound was added with a final concentration of 0.5% DMSO. Plates were incubated for 24 h at 37°C, 5% CO2. Interleukin-2 was quantified using Human IL-2 DuoSet ELISA (R&D Systems, Minneapolis, MN). Raw data were converted to ng/ml IL-2 using a standard curve obtained in parallel.

[4] = test system: NF-κB response element reporter in Jurkat cells; assay: NF-κB-responsive Fluc reporter in Jurkat cells; format: cell-based, human; details: stably-transfected Jurkat cells, 4 h
Text: The vector pGL4.32[luc2P/NF-κB-RE/Hygro] was purchased from Promega (Madison, WI), encoding 5 copies of a NF-κB response element driving expression of synthetic firefly luciferase gene, luc2, including a PEST destabilization sequence. Jurkat cells were transfected with this vector using a Gene Pulser® II (Biorad, Hercules, CA) with a 0.4 cm gap cuvette at 0.2 kV and 960 μF. Cells were allowed to recover for three days in RPMI-1640 with 10% FBS and 1% penicillin/streptomycin before selection with 200 μg/ml Hygromycin B for one month. Pooled, stably-transfected cells were plated at 50,000/well in 96-well plates and treated with test compounds in a final concentration of 0.5% DMSO for 4 h at 37°C. Luciferase activity was determined by adding one volume 2× steadylite plus reagent (Perkin Elmer, Waltham, MA) and reading on a ViewLux microplate imager.

[5] = Microsome assay, human liver microsomes; format: in vitro ADME
Experimental: as §1

HIV-1 LTR = assay: HIV LTR-driven Rluc reporter in HeLa cells; format: cell-based; details: transfected HeLa cells, 24 h
Text: The vector pGL4.77[hRlucP/Hygro] encoding a Renilla luciferase gene including a PEST destabilization sequence, was purchased from Promega (Madison, WI). HIV-1 cDNA was generated from HIVIIIB virus using PureLink® Viral RNA/DNA Mini Kit (Invitrogen). The HIV-1 core promoter region (nucleotides -105 to 60) was amplified from HIVIIIB cDNA using primers designed with NheI (forward: 5ʹ-GCTAGCGGGACTTTCCGCTGGG-3ʹ) and XhoI (reverse: 5ʹ-CTCGAGAGTGGGTTCCCTAGTTAGCCA-3ʹ) flanking restriction site sequences. DNA fragments were generated using Platinum® Taq DNA Polymerase High Fidelity (Invitrogen) and fragment size was verified by electrophoresis using E-Gel® 1.2% agarose (Invitrogen). Fragments were cloned into pCR™2.1 TOPO® (Invitrogen), transformed into One Shot® TOP10 Chemically Competent E. coli (Invitrogen), and selected on LB-agar plates containing 100 μg/ml ampicillin. Individual colonies were grown in LB broth, DNA was isolated using QIAprep® Spin Miniprep Kit (Qiagen), and the inserted fragment was verified by EcoRI digestion followed by electrophoresis using E-Gel® 1.2% agarose (Invitrogen). To insert the HIV-1 LTR into the vector multiple cloning region, the resultant plasmids and pGL4.77[hRlucP/Hygro] were dually digested with NheI and XhoI (New England Biolabs), ligated using ExpressLink™ T4 DNA Ligase (Invitrogen), transformed into One Shot® TOP10 Chemically Competent E. coli (Invitrogen), and selected on LB-agar plates containing 100 μg/ml ampicillin. Clones were picked and DNA isolated using QIAprep® Spin Miniprep Kit (Qiagen) and the inserted fragment was verified by NheI/XhoI digestion followed by electrophoresis using E-Gel® 1.2% agarose (Invitrogen). The resultant plasmid, pGL4.77-LTR, was verified by sequencing at GENEWIZ (South Plainfield, NJ). […] Luciferase activity was quantified using Renilla Luciferase Assay System (Promega, Madison, WI) and results were normalized to the vehicle-treated control.

[6] = test system: Epstein-Barr virus (EBV) in Raji cells; assay: EBV activation assay in Raji cells (BZLF1 qRT-PCR); format: cell-based
[7] = CD-1, brain, read-out: AUC0-24, brain
[8] = CD-1, plasma, read-out: AUC0-24, plasma

**Q.** What does the source list for Nc1ccc2[nH]c(-c3ccc(-c4nc5cc(N)ccc5o4)cc3)nc2c1 [Compound 1, 2-(4-(5-amino-1H-benzimidazol-2-yl)phenyl)benzoxazol-5-amine]?
**A.** MLM stability (% loss of parent compound at 1 h) [1]: 28%; Effect on ORF50 mRNA (KSHV) [2]: little effect; AUC(0-t) [3, 7]: 0.12 µM·h; Cmax ([3]; CD-1, plasma): 550 nM; AUC(0-t) [3, 8]: 2.2 µM·h; Cmax, brain [3]: 65 nM; IL-2 secretion by PBMCs (in words) (IL-2 secretion by PBMCs): neither Compound 1 nor 2 increased secretion of IL-2; Induction of NF-κB driven reporter (in words) [4]: Neither Compound 1 nor Compound 2 induced; HLM stability (% loss of parent compound at 1 h) [5]: 57%; Transcription driven by the HIV-1 LTR (in words) (HIV-1 LTR): did not significantly increase transcription; Effect on BLZF1 mRNA (EBV) ([6]; Raji cells, 24 h, up to 100 μM): little effect

**Q.** For Nc1ccc2[nH]c(-c3ccc(-c4nc5ccc(N)cc5o4)cc3)nc2c1 [Compound 2], which “MLM stability (% loss of parent compound at 1 h)” value [1] is on record?
**A.** 53%

**Q.** What about the “Effect on ORF50 mRNA (KSHV)” value [2] of the same compound?
**A.** little effect

**Q.** What about the AUC(0-t) [3, 7] of the same compound?
**A.** 0.054 µM·h

**Q.** What about the Cmax ([3]; CD-1, plasma) of the same compound?
**A.** 180 nM

**Q.** What about the AUC(0-t) [3, 8] of the same compound?
**A.** 0.92 µM·h

**Q.** And the “Cmax, brain” value [3]?
**A.** 54 nM

**Q.** And the “IL-2 secretion by PBMCs (in words)” value (IL-2 secretion by PBMCs)?
**A.** neither Compound 1 nor 2 increased secretion of IL-2

**Q.** And the “Induction of NF-κB driven reporter (in words)” value [4]?
**A.** Neither Compound 1 nor Compound 2 induced

**Q.** And the “HLM stability (% loss of parent compound at 1 h)” value [5]?
**A.** 61%

**Q.** What about the “Transcription driven by the HIV-1 LTR (in words)” value (HIV-1 LTR) of the same compound?
**A.** did not significantly increase transcription

**Q.** And the “Effect on BLZF1 mRNA (EBV)” value [6]?
**A.** little effect
